Like-named read-outs stand apart in the source and are kept apart here.
Key:
Assay type in all cases: cell-based
[1] = system: HCV replicon cells (wild-type clone 24-2, Huh-7); assay: 2-day Replicon assay with bDNA quantitation, checkerboard combination (Bliss independence / MacSynergy); details: VX-950 in the checkerboard experiment with the named polymerase inhibitor, read-out: VX-950 IC50
Experimental: Huh-7 cells were propagated in Dulbecco's modified Eagle's medium (DMEM, JRH Biosciences, Lenexa, Kans.) supplemented with 10% heat-inactivated FBS (fetal bovine serum), 2 mM L-glutamine, and nonessential amino acids (JRH). The cells were transfected with an in vitro transcribed HCV replicon RNA identical to replicon 1377neo/NS3-3′/wt as described by Lohmann et al. (1999). Stable cell clones were selected and maintained in the presence of 250 μg/mL G418 (Invitrogen, Carlsbad, Calif.). One of the clones, 24-2, was used as the wild-type in the subsequent HCV replicon assays for combination studies. The HCV NS3 protease variant replicons were constructed in the background of the mADE wild-type replicon as described previously [Chao Lin et al., “In Vitro Resistance Studies of Hepatitis C Virus Serine Protease Inhibitors, VX-950 and BILN 2061: Structural Analysis Indicates Different Resistance Mechanisms,” Journal of Biological Chemistry, 279(17); pp. 17508-17514 (2004)]. The replicon cells were propagated in DMEM supplemented with 10% FBS, 2 mM L-glutamine, nonessential amino acids, and 250 μg/mL G418. The cells were split twice per week in fresh media upon reaching confluence. There are approximately 200-300 copies of HCV RNA per 24-2 replicon cell.
(§1) HCV replicon RNA from cells was measured using the Quantigene Discover XL kit (Panomics Inc., Fremont Calif.) as per the manufacturer's instructions. Briefly, compound-treated replicon cells were lysed and immobilized on to capture plates using HCV specific oligonucleotides (designed based on the 5′ UTR region of HCV 1b genome sequence AJ238799 in the GenBank database) over night and the relative amounts of captured RNA was measured using oligonucleotide probe sets as per the manufacturer's instructions.
(§2) On the day prior to the assay, 10,000 replicon cells were plated per well of a 96-well plate and allowed to attach and grow overnight in DMEM (Invitrogen, Carlsbad, Calif.) supplemented with 10% heat-inactivated FBS (JRH Biosciences, Lenexa, Kans.), 2 mM L-glutamine (Invitrogen), nonessential amino acids (Invitrogen) and 250 μg/ml G418 (Invitrogen). Next day, the medium was removed and antiviral agents that were serially diluted in DMEM containing 2% FBS and 0.5% DMSO (Sigma Chemical Co., St. Louis, Mo.) without G418, was added. The replicon cells were incubated with the antiviral agents for 48 h. HCV replicon RNA from cells was measured using the Quantigene Discover XL kit (Panomics Inc., Fremont Calif.) as per the manufacturer's instructions. Briefly, compound-treated replicon cells were lysed and immobilized onto capture plates using HCV specific oligonucleotides overnight and the relative amounts of captured RNA was measured using oligonucleotide probe sets as per the manufacturer's instructions. Unless indicated otherwise, each data point represents the average of three replicates. The IC50 is the concentration of the compound at which the HCV replicon RNA level in cells is reduced by 50% as compared to the untreated replicon cell controls. To monitor the effect of compounds on cell proliferation or cell viability, replicon cells were treated with serially diluted compounds for 48 h, after which cell viability was determined using a CellTiter Glo assay (Promega, Madison, Wis.). Each CC50 is derived from at least two replicates and is the concentration of the compound at which the number of viable cells is reduced by 50% as compared to untreated cell controls. The IC50 and CC50 was determined using 4-parameter curve fitting in the SoftMax Pro program (Molecular Devices, Sunnyvale, Calif.).
The effects of drug-drug combinations were evaluated using the Bliss independence model [W. R. Greco et al., “The search for synergy: a critical review from a response surface perspective,” Pharmacol. Rev., 47, pp. 331-385 (1995)]. The experimental data were analyzed by using MacSynergy, a three-dimensional analytical method developed by Prichard and Shipman [M. N. Prichard and C. […]

[2] = system: HCV replicon Wild Type (mADE); assay: 2-Day HCV Replicon IC50 Assay, wild type replicon; details: Wild Type replicon
Experimental: (§3) Huh-7 cells were propagated in Dulbecco's modified Eagle's medium (DMEM, JRH Biosciences, Lenexa, Kans.) supplemented with 10% heat-inactivated FBS (fetal bovine serum), 2 mM L-glutamine, and nonessential amino acids (JRH). The cells were transfected with an in vitro transcribed HCV replicon RNA identical to replicon 1377neo/NS3-3′/wt as described by Lohmann et al. (1999). Stable cell clones were selected and maintained in the presence of 250 μg/mL G418 (Invitrogen, Carlsbad, Calif.). […] The HCV NS3 protease variant replicons were constructed in the background of the mADE wild-type replicon as described previously [Chao Lin et al., “In Vitro Resistance Studies of Hepatitis C Virus Serine Protease Inhibitors, VX-950 and BILN 2061: Structural Analysis Indicates Different Resistance Mechanisms,” Journal of Biological Chemistry, 279(17); pp. 17508-17514 (2004)]. The replicon cells were propagated in DMEM supplemented with 10% FBS, 2 mM L-glutamine, nonessential amino acids, and 250 μg/mL G418. The cells were split twice per week in fresh media upon reaching confluence. There are approximately 200-300 copies of HCV RNA per 24-2 replicon cell.
as §1, §2
(§4) The sensitivity of NS3 protease variants to ribavirin and interferon was assessed in a 2-Day HCV Replicon IC50 Assay.

[3] = system: HCV NS3 protease variant replicon R155K; assay: microbe, parasite or virus in culture
Experimental: as §3, §1, §2, §4

[4] = system: HCV NS3 protease variant replicon T54A; assay: microbe, parasite or virus in culture
Experimental: as §3, §1, §2, §4

[5] = system: HCV NS3 protease variant replicon V36A; assay: microbe, parasite or virus in culture
Experimental: as §3, §1, §2, §4

[6] = system: HCV NS3 protease variant replicon V36M+R155K; assay: microbe, parasite or virus in culture; details: V36M-R155K; ratio of mutant IC50 to Wild type IC50 for the same inhibitor
Experimental: as §3, §1, §2, §4

[7] = system: HCV NS3 protease variant replicon V36M; assay: microbe, parasite or virus in culture
Experimental: as §3, §1, §2, §4

[8] = system: HCV NS3 protease variant replicon A156T; assay: 2-Day HCV Replicon IC50 Assay, A156T
Experimental: as §3, §1, §2, §4

[9] = system: HCV NS3 protease variant replicon A156V; assay: 2-Day HCV Replicon IC50 Assay, A156V
Experimental: as §3, §1, §2, §4

[10] = Hepatitis C virus, read-out: Avg. IC50 ± STDEV

SMILES: CCC[C@H](NC(=O)[C@@H]1[C@H]2CCC[C@H]2CN1C(=O)[C@@H](NC(=O)[C@@H](NC(=O)c1cnccn1)C1CCCCC1)C(C)(C)C)C(=O)C(=O)NC1CC1 [VX-950]
- IC50 ([1]; Hepatitis C virus, Huh-7, 48 h): 0.31 µM
- IC50 ([1]; 48 h, with polymerase inhibitor of Formula I): 0.42 µM
- IC50 ([1]; 48 h, with polymerase inhibitor of Formula II): 0.34 µM
- IC50 ([2]; Hepatitis C virus, Table 8, read-out: Avg. IC50 ± STDEV): 0.46 ± 0.101 µM
- Fold Change ([2]; ratio of IC50 to Wild type IC50 for the same inhibitor): 1 ± 0.2
- IC50 [3, 10]: 3.59 ± 0.283 µM
- Fold Change ([3]; R155K, ratio of mutant IC50 to Wild type IC50 for the same inhibitor): 7.8 ± 0.6
- IC50 [4, 10]: 3.04 ± 0.819 µM
- Fold Change ([4]; T54A, ratio of mutant IC50 to Wild type IC50 for the same inhibitor): 6.6 ± 1.8
- IC50 [5, 10]: 3.57 ± 1.05 µM
- Fold Change ([5]; V36A, ratio of mutant IC50 to Wild type IC50 for the same inhibitor): 7.7 ± 2.3
- Fold Change [6]: ≧65.2
- IC50 [7, 10]: 3.38 ± 0.775 µM
- Fold Change ([7]; V36M, ratio of mutant IC50 to Wild type IC50 for the same inhibitor): 7.3 ± 1.7
- Fold Change ([8]; A156T, ratio of mutant IC50 to Wild type IC50 for the same inhibitor): >65.2
- IC50 [8, 10]: > 30 µM
- Fold Change ([9]; A156V, ratio of mutant IC50 to Wild type IC50 for the same inhibitor): >65.2
- IC50 [9, 10]: > 30 µM

— patent publication US8258116B2, “Combination therapy for the treatment of HCV infection” (Vertex Pharmaceuticals Incorporated, priority 2007, dated 2012)
